Patent publication US20250382332A1, “NOVEL ALPHA-FACTOR BASED PEPTIDES WITH ANTIFUNGAL ACTIVITY” (INVAIO SCIENCES, INC., priority 2024, published 2025)
Peptide text beside a SMILES is read from it.

Test system: Botrytis cinerea (B05.10)
Experiment: Resazurin antifungal assay of 180 alpha-factor peptide variants towards Botrytis (Example 2)
Assay type: cell-based
Conditions: % inhibition of fungal growth, Botrytis conidia, resazurin; for Inhibition at 50 μM: peptide 50 μM; for Inhibition at 100 μM: peptide 100 μM
In short: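 Resazurin viability read-out (570/620 nm fluorescence) after a 24 h, 20° C incubation of B05.10 conidia, 5000 per well, with peptide at final 10-100 μM. Growth inhibition (%) was derived by subtracting conidia-only fluorescence; four replicates per treatment.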

| Structure (SMILES) | Inhibition at 50 μM | Inhibition at 100 μM |
| --- | --- | --- |
| CSCC[C@H](NC(=O)[C@@H]1CCCN1C(=O)[C@H](CCSC)NC(=O)CNC(=O)[C@@H](NC(=O)[C@H](CCCCN)NC(=O)[C@H](CC(C)C)NC(=O)[C@H](CCC(=O)O)NC(=O)[C@H](CC(C)C)NC(=O)[C@H](Cc1c[nH]c2ccccc12)NC(=O)[C@H](CS)NC(=O)[C@@H](N)CCCCN)[C@@H](C)O)C(=O)N[C@@H](Cc1ccc(O)cc1)C(=O)O [compound 35] (H-KCWLELKTGMPMY-OH; N-terminus and C-terminus assumed) | <90% | 97.61% |
| CSCC[C@H](NC(=O)[C@H](Cc1c[nH]cn1)NC(=O)[C@@H](N)Cc1c[nH]c2ccccc12)C(=O)N[C@@H](CC(C)C)C(=O)N[C@@H](CCC(=O)O)C(=O)N[C@@H](Cc1ccccc1)C(=O)N[C@@H](CCCCN)C(=O)N1CCC[C@H]1C(=O)NCC(=O)N[C@@H](CCC(N)=O)C(=O)N1CCC[C@H]1C(=O)N[C@@H](CCSC)C(=O)N[C@@H](Cc1ccc(O)cc1)C(=O)O [compound 36] (H-WHMLEFKPGQPMY-OH; N-terminus and C-terminus assumed) | <90% | <90% |
| CC[C@H](C)[C@H](NC(=O)[C@H](Cc1c[nH]c2ccccc12)NC(=O)[C@H](Cc1c[nH]cn1)NC(=O)[C@@H]1CCCN1)C(=O)N[C@@H](CCC(N)=O)C(=O)N[C@@H](CC(C)C)C(=O)N[C@@H](Cc1ccccc1)C(=O)N[C@@H](CC(N)=O)C(=O)NCC(=O)N[C@@H](CCC(N)=O)C(=O)N1CCC[C@H]1C(=O)N[C@@H](CCSC)C(=O)N[C@@H](Cc1ccc(O)cc1)C(=O)O [compound 37] (H-PHWIQLFNGQPMY-OH; N-terminus and C-terminus assumed) | <90% | <90% |
| CSCC[C@H](NC(=O)[C@@H]1CCCN1C(=O)[C@H](CCC(=O)O)NC(=O)CNC(=O)[C@@H]1CCCN1C(=O)[C@H](CCCCN)NC(=O)[C@H](Cc1ccccc1)NC(=O)[C@H](CCC(N)=O)NC(=O)[C@H](CC(C)C)NC(=O)[C@@H](NC(=O)[C@H](Cc1c[nH]cn1)NC(=O)[C@@H](N)CCCCN)C(C)C)C(=O)N[C@@H](Cc1ccc(O)cc1)C(=O)O [compound 38] (H-KHVLQFKPGEPMY-OH; N-terminus and C-terminus assumed) | <90% | <90% |
| CSCC[C@H](NC(=O)[C@@H]1CCCN1C(=O)[C@H](CCC(N)=O)NC(=O)CNC(=O)[C@@H]1CCCN1C(=O)[C@H](CCCCN)NC(=O)[C@H](Cc1ccccc1)NC(=O)[C@H](CCC(N)=O)NC(=O)CNC(=O)[C@H](Cc1c[nH]c2ccccc12)NC(=O)[C@H](CO)NC(=O)[C@@H](N)CCCCN)C(=O)N[C@@H](Cc1ccc(O)cc1)C(=O)O [compound 39] (H-KSWGQFKPGQPMY-OH; N-terminus and C-terminus assumed) | <90% | <90% |
| CC[C@H](C)[C@H](NC(=O)[C@H](Cc1c[nH]c2ccccc12)NC(=O)[C@H](CCC(=O)O)NC(=O)[C@@H]1CCCN1)C(=O)N[C@@H](CCC(N)=O)C(=O)N[C@@H](CC(C)C)C(=O)N[C@@H](CCCCN)C(=O)N[C@H](C(=O)NCC(=O)N[C@@H](CCSC)C(=O)N1CCC[C@H]1C(=O)N[C@@H](CCSC)C(=O)N[C@@H](Cc1ccc(O)cc1)C(=O)O)[C@@H](C)O [compound 40] (H-PEWIQLKTGMPMY-OH; N-terminus and C-terminus assumed) | <90% | <90% |
| CSCC[C@H](NC(=O)[C@@H]1CCCN1C(=O)[C@H](CCC(N)=O)NC(=O)CNC(=O)[C@@H]1CCCN1C(=O)[C@H](CCCCN)NC(=O)[C@H](Cc1ccccc1)NC(=O)[C@H](CC(N)=O)NC(=O)[C@H](CC(C)C)NC(=O)[C@H](CC(C)C)NC(=O)[C@H](Cc1c[nH]cn1)NC(=O)[C@@H]1CCCN1)C(=O)N[C@@H](Cc1ccc(O)cc1)C(=O)O [compound 41] (H-PHLLNFKPGQPMY-OH; N-terminus and C-terminus assumed) | <90% | <90% |
| CSCC[C@H](NC(=O)[C@@H]1CCCN1C(=O)[C@H](CCC(N)=O)NC(=O)CNC(=O)[C@H](CO)NC(=O)[C@H](Cc1c[nH]c2ccccc12)NC(=O)[C@H](CC(C)C)NC(=O)[C@H](CCC(N)=O)NC(=O)CNC(=O)[C@H](CO)NC(=O)[C@H](Cc1c[nH]cn1)NC(=O)[C@@H]1CCCN1)C(=O)N[C@@H](Cc1ccc(O)cc1)C(=O)O [compound 42] (H-PHSGQLWSGQPMY-OH; N-terminus and C-terminus assumed) | <90% | <90% |
| CSCC[C@H](NC(=O)[C@@H]1CCCN1C(=O)[C@H](CCC(N)=O)NC(=O)CNC(=O)[C@H](CC(C)C)NC(=O)[C@H](CCCCN)NC(=O)[C@H](Cc1ccccc1)NC(=O)[C@H](CCC(N)=O)NC(=O)CNC(=O)[C@H](Cc1c[nH]c2ccccc12)NC(=O)[C@H](Cc1c[nH]cn1)NC(=O)[C@@H]1CCCN1)C(=O)N[C@@H](Cc1ccc(O)cc1)C(=O)O [compound 43] (H-PHWGQFKLGQPMY-OH; N-terminus and C-terminus assumed) | <90% | <90% |
| CSCC[C@H](NC(=O)CNC(=O)[C@H](CCC(N)=O)NC(=O)CNC(=O)[C@@H](NC(=O)[C@H](CCCCN)NC(=O)[C@H](CC(C)C)NC(=O)[C@H](CC(N)=O)NC(=O)[C@@H](NC(=O)[C@H](Cc1c[nH]c2ccccc12)NC(=O)[C@H](Cc1c[nH]cn1)NC(=O)[C@@H]1CCCN1)C(C)C)[C@@H](C)O)C(=O)N[C@@H](Cc1ccc(O)cc1)C(=O)O [compound 44] (H-PHWVNLKTGQGMY-OH; N-terminus and C-terminus assumed) | <90% | <90% |
| CSCC[C@H](NC(=O)[C@H](CO)NC(=O)[C@H](CCC(N)=O)NC(=O)CNC(=O)[C@@H]1CCCN1C(=O)[C@H](CCCCN)NC(=O)[C@H](Cc1ccccc1)NC(=O)[C@H](CCC(N)=O)NC(=O)[C@H](CC(C)C)NC(=O)CNC(=O)[C@@H](NC(=O)[C@@H]1CCCN1)[C@@H](C)O)C(=O)N[C@@H](Cc1ccc(O)cc1)C(=O)O [compound 45] (H-PTGLQFKPGQSMY-OH; N-terminus and C-terminus assumed) | <90% | <90% |
| CSCC[C@H](NC(=O)[C@@H]1CCCN1C(=O)[C@H](CCC(N)=O)NC(=O)CNC(=O)[C@@H](NC(=O)[C@H](CC(N)=O)NC(=O)[C@H](CC(C)C)NC(=O)[C@H](CO)NC(=O)[C@H](CC(C)C)NC(=O)[C@H](Cc1c[nH]c2ccccc12)NC(=O)[C@H](Cc1c[nH]cn1)NC(=O)[C@@H](N)Cc1c[nH]c2ccccc12)[C@@H](C)O)C(=O)N[C@@H](Cc1ccc(O)cc1)C(=O)O [compound 46] (H-WHWLSLNTGQPMY-OH; N-terminus and C-terminus assumed) | <90% | 97.03% |
| CSCC[C@H](NC(=O)[C@@H]1CCCN1C(=O)[C@H](CCC(N)=O)NC(=O)CNC(=O)[C@@H]1CCCN1C(=O)[C@H](Cc1c[nH]c2ccccc12)NC(=O)[C@H](CC(C)C)NC(=O)[C@H](CCC(=O)O)NC(=O)[C@H](CC(C)C)NC(=O)[C@H](CC(=O)O)NC(=O)[C@H](Cc1c[nH]cn1)NC(=O)[C@@H](N)CCCCN)C(=O)N[C@@H](Cc1ccc(O)cc1)C(=O)O [compound 47] (H-KHDLELWPGQPMY-OH; N-terminus and C-terminus assumed) | <90% | <90% |
